The source of these data is patent US12358902B2, “5-(2,5-bis(4-chloro-2-isopropylphenyl)thiophen-3-yl)-1H-tetrazole for the topical treatment of bacterial infections” (DENOVAMED INC., priority 2017, dated 2025).

≈ marks a conversion by molar mass, not a printed value.

The test system of one test is Clostridium spp. In words: activity against Clostridium spp. It counts as cell-based.
For another test, the system named is MRSA (ATCC #33591). As to the kind of experiment: rabbit ischemic wound model. The settings on record: topical daily to day 14; p<0.001 vs control, p<0.03 vs mupirocin. It counts as in vivo, New Zealand white rabbits. On the procedure: 5-(2,5-bis(4-chloro-2-isopropylphenyl)thiophen-3-yl)-1H-tetrazole was tested for its efficacy against infection in the rabbit ischemic wound model, the gold standard animal model mimicking human DUI. In this model, the ear is made ischemic by division of central and rostral nutrient arteries of New Zealand white rabbits. New Zealand White rabbits were employed for this study and their husbandry and experimental manipulation adhered to standard Guides for the Care and Use of Laboratory Animals (2001). An incision was made to the level of bare cartilage at the base of the ear and followed by injection intradermally with epinephrine to obtain vasoconstriction and aid with skin detachment. Skin is separated from the underlying perichondrium and removed with a 6.0 mm aortic biopsy punch. Food and water were given ad libidum and animals were acclimatized for 7 days with photoperiods of alternating 12 h light and dark provided, along with analgesic (BUPRENEX™ (buprenorphine) 0.02 mg/kg sc) and anaesthesia (isoflurane (0.5-5% with oxygen carrier 0.5-2 L/min) during procedures.
An ischemia wound healing model was conducted surgically. Each wound was inoculated with 50 μl of 2×10^7 CFU/ml MRSA (ATCC #33591) and dressed. After one day, wounds were treated with either 50 μl control cream containing vehicle (N=4), 50 μl containing mupirocin (N=4), or 50 μl cream containing 5-(2,5-bis(4-chloro-2-isopropylphenyl)thiophen-3-yl)-1H-tetrazole (N=8) daily. Clinical observations were performed on days 1, 3, 5, 7, 10 and 14. Wounds were assessed and observations recorded using the Draize scoring system. Digital photographs of each wound were obtained and documented.
On day 14 post-wounding, under anesthesia, the animals were euthanized with an intravenous injection of BEUTHANASIA-D™ ([…] and phenytoin sodium) at a dosage of 150 mg/kg of body weight. Specimens including the entire wound, along with approximately 2-3 mm of the normal unwounded skin margins were harvested. Each ear wound specimen was sectioned into halves. For one half of the wound, the wound was placed into a container with 10% neutral buffered formalin and processed for routine histological evaluation. Wound organization was scored for four parameters on a scale of 0-4 at the wound site for inflammation, granulation, angiogenesis, and epithelialization. Wounds were characterized in a blinded manner by a board certified member of the College of American Pathologists. The other half of the wound was weighed (mg) in a sterile Petri dish, then placed in a sterile disposable tissue grinder and homogenized for quantitative microbiology. The tube containing the ground tissue sample was filled with 5 ml 0.85% sterile saline. Five 1:10 serial dilutions were then prepared with 0.5 ml aliquots and 4.5 ml of sterile saline per aliquot. Subsequently, 0.1 ml of the homogenate and each dilution was drop plated on trypticase soy agar and placed in an incubator at 37° C. The number of viable organisms per wound was recorded as cfu/gram of tissue.

For test [1], the system named is S. aureus MRSA USA100 epidemic strain. As to the kind of experiment: broth microdilution MIC (CLSI). The settings on record: Staphylococcus aureus, read-out: Antibacterial activity (MIC). It counts as cell-based. On the procedure: (§1) Using a broth microdilution assay according to Clinical Laboratory Standards Institute (CSLI) guidelines, we tested 5-(2,5-bis(4-chloro-2-isopropylphenyl)thiophen-3-yl)-1H-tetrazole (“Test Article” in below table) to establish MICs against a broad range of MDR bacteria and noted substantive activity versus methicillin-resistant Staphylococcus aureus (MRSA), vancomycin-resistant Enterococcus (VRE) and Streptococcus spp. Antimicrobial susceptibility testing was performed by a microdilution broth assay according to CLSI guidelines. The inoculum was prepared from stationary-phase cultures diluted in water. Microtiter plate wells received aliquots of 100 μL of the compound diluted in Mueller-Hinton II cation adjusted media. The final concentration of compound typically ranged from 250 to 0.125 μg/ml in serial two-fold dilutions. In addition to the test compound, growth and sterility controls were included, along with DMSO vehicle control rows. The microtiter plates were inoculated with 5×10^5 bacteria and incubated overnight at 35° C. in a humidified atmosphere.
In general terms: Dilution methods test growth across graded concentrations, often in twofold steps.

In test [2] the test system is S. aureus MRSA clinical isolate ciprofloxacin resistant. In words: broth microdilution MIC (CLSI). It counts as cell-based. The settings on record: Staphylococcus aureus, MRSA, read-out: Antibacterial activity (MIC). As to the method: as §1
Test [3] relates to S. aureus MRSA clinical isolate multi resistant. As to the kind of experiment: broth microdilution MIC (CLSI). The format is cell-based. The settings on record: Staphylococcus aureus, MRSA, read-out: Antibacterial activity (MIC). On the procedure: as §1
Test [4] concerns S. aureus MRSA MISA MU3 NRS2. In words: broth microdilution MIC (CLSI). The format is cell-based. The settings on record: Staphylococcus aureus, read-out: Antibacterial activity (MIC). As to the method: as §1
In test [5] the test system is S. aureus MRSA USA300 epidemic strain. As to the kind of experiment: broth microdilution MIC (CLSI). It counts as cell-based. The settings on record: Staphylococcus aureus, read-out: Antibacterial activity (MIC). As to the method: as §1
For test [6], the system named is S. aureus MRSA clinical isolate penicillin and erythromycin resistant. As to the kind of experiment: broth microdilution MIC (CLSI). The format is cell-based. The settings on record: Staphylococcus aureus, MRSA, read-out: Antibacterial activity (MIC). As to the method:
as §1

In test [7] the test system is S. aureus MRSA clinical isolate from Manchester. In words: broth microdilution MIC (CLSI). The settings on record: Staphylococcus aureus, MRSA, read-out: Antibacterial activity (MIC). The format is cell-based. On the procedure:
as §1

Test [8] deals with S. aureus MRSA MISA MU50 NRS1. In words: broth microdilution MIC (CLSI). The settings on record: Staphylococcus aureus, read-out: Antibacterial activity (MIC). It counts as cell-based. As to the method:
as §1

For test [9], the system named is S. aureus MRSA USA200 epidemic strain. As to the kind of experiment: broth microdilution MIC (CLSI). The format is cell-based. The settings on record: Staphylococcus aureus, read-out: Antibacterial activity (MIC). As to the method: as §1
The next test concerns S. aureus MRSA ATCC43300. As to the kind of experiment: broth microdilution MIC (CLSI). It counts as cell-based. The settings on record: Staphylococcus aureus, read-out: Antibacterial activity (MIC). On the procedure: as §1

For `CC(C)c1cc(Cl)ccc1-c1cc(-c2nnn[nH]2)sc1-c1ccc(Cl)cc1C(C)C` [5-(4,5-bis(4-chloro-2-isopropylphenyl)thiophen-2-yl)-1H-tetrazole, reference compound], the result in the test on Clostridium spp. was inactive.

Turning to `C/C(=C\C(=O)OCCCCCCCCC(=O)O)C[C@@H]1OC[C@H](C[C@@H]2O[C@H]2[C@@H](C)[C@H](C)O)[C@@H](O)[C@H]1O` [mupirocin, reference compound], in the test with MRSA (ATCC #33591), the “percent wound contraction over time (FIG. 1)” value is “control group had less wound contraction than either treated group”.

For `CN[C@H](CC(C)C)C(=O)N[C@H]1C(=O)N[C@@H](CC(N)=O)C(=O)N[C@H]2C(=O)N[C@H]3C(=O)N[C@H](C(=O)N[C@H](C(=O)O)c4cc(O)cc(O)c4-c4cc3ccc4O)[C@H](O)c3ccc(c(Cl)c3)Oc3cc2cc(c3O[C@@H]2O[C@H](CO)[C@@H](O)[C@H](O)[C@H]2O[C@H]2C[C@](C)(N)[C@H](O)[C@H](C)O2)Oc2ccc(cc2Cl)[C@H]1O` [vancomycin, reference compound], the MIC (commonly the smallest concentration in the dilution series that meets the test's criterion for growth inhibition) was found to be 1 µg/mL (≈ 0.69 µM) in test [1]; 0.5 µg/mL (≈ 0.345 µM) in test [2]; 0.5 µg/mL (≈ 0.345 µM) in test [3]; 1 µg/mL (≈ 0.69 µM) in [4]; 1 µg/mL (≈ 0.69 µM) in test [5]; 1 µg/mL (≈ 0.69 µM) in test [6]. In addition, the MIC in test [7] was 0.5 µg/mL (≈ 0.345 µM); in test [8], 4 µg/mL (≈ 2.76 µM); in test [9], 0.5 µg/mL (≈ 0.345 µM); with S. aureus MRSA ATCC43300, 0.5 µg/mL (≈ 0.345 µM).
